{"source": "patent US20070238649A1", "about": "“Agents for Regulating Adiponectin Receptor Expression” (priority 2004, published 2007)", "molecules": {"B1": {"name": "adiponectin: bacterially expressed murine full-length adiponectin; 125I-labeled adiponectin (globular or full-length) in the binding assay (protein)", "chain": "EDDVTTTEELAPALVPPPKGTCAGWMAGIPGHPGHNGTPGRDGRDGTPGEKGEKGDAGLLGPKGETGDVGMTGAEGPRGFPGTPGRKGEPGEAAYVYRSAFSVGLETRVTVPNVPIRFTKIFYNQQNHYDGSTGKFYCNIPGLYYFSYHITVYMKDVKVSLFKKDKAVLFTYDQYQEKNVDQASGSVLLHLEVGDQVWLQVYGDGDHNGLYADNVNDSTFTGFLLYHDTN"}}, "key": {"[1]": {"assay": "Plasma insulin and plasma glucose in STZ-treated mice without or with insulin", "assay_type": "in vivo", "from_the_text": "Animals Fifteen-week-old ob/ob mice and their wild-type C57BL/6 mice were obtained from CharlesRiver Breeding Laboratories (Wilmington, Mass.). Male mice were housed in colony cages, maintained on a 12-h light/12-h dark cycle. Our high-fat diet contains oil 1152 g (from Benibana, Japan; safflower oil [high-oleic type] contained 46% oleic acid (18:1n-9) and 45% linoleic acid (18:2n-6) from total fatty acids), casein 1191.6 g (Oriental Yeast, Tokyo, Japan, No.19), sucrose 633.6 g (Oriental Yeast, No. 13), vitamin mix 50.4 g (Oriental Yeast, No. 20 (AIN76), mineral mix 352.8 g (Oriental Yeast, No.25 (AIN76), cellulose powder 201.6 g (Oriental Yeast, No.19), DL-methionine 18 g (Wako Pure Chemicals, Osaka, Japan), water 360 ml; total 3600 g (20). Plasma insulin was measured by an insulin immunoassay (Shibayagi, Gunma, Japan). The animal care and procedures were approved by the Animal Care Committee of the University of Tokyo.\n(§1) STZ Treatments Diabetes was induced by a double intraperitoneal injection of 0.2-0.3 ml of 50 mM sodium citrate solution (pH 4.5) containing STZ (200 mg/kg body weight). Control (non-STZ) mice were injected with 50 mM sodium citrate solution (pH 4.5). Three days after injection, plasma glucose levels were checked and diabetes was confirmed (glucose level >250 mg/dl). A combination of human regular insulin (1 units/kg; Eli Lilly, Indianapolis, Ind.), each given in 0.2 ml of saline was administered to the STZ+ insulin group. The mice in the STZ+ vehicle and non-STZ groups received 0.2 ml of saline injected both intraperitoneally. After injection of INS or saline, the animals were fasted for 6 h and then hindlim's skeletal muscles were removed."}, "AdipoR1 mRNA": {"system": "AdipoR1 mRNA", "assay": "AdipoR1 mRNA in skeletal muscle of STZ-treated mice (real-time PCR)", "assay_type": "in vivo", "conditions": "FIG. 2C", "protocol": "as §1\n(§2) Quantitative analysis of AdipoR1 and R2 transcripts by Northern blot and Real-time PCR Total RNA was prepared from cells or tissues with TRIzol (GIBCO/BRL) according to the manufacturer's instructions. For quantification of AdipoRs mRNAs, we employed the real-time PCR method (14). The primer sets and the probes for mAdipoR1,2 were as follows; the forward primer for mAdipoR1 was […], the reverse primer, […] and the probe, […]; the forward primer for mAdipoR2 was […], the reverse primer, […] and the probe, […]. The relative amount of each AdipoR transcript was normalized to the amount of actin transcript in the same cDNA (14)."}, "AdipoR2 mRNA": {"system": "AdipoR2 mRNA", "assay": "AdipoR2 mRNA in skeletal muscle of STZ-treated mice (real-time PCR)", "assay_type": "in vivo", "conditions": "FIG. 2D", "protocol": "as §1, §2"}, "[2]": {"system": "membrane fractions of skeletal muscle", "assay": "[125I]adiponectin binding assay on membrane fractions of skeletal muscle", "conditions": "wild-type vs ob/ob mice; FIGS. 5A, 5B", "protocol": "Binding Assay Synthetic adiponectin was ^125I-labeled at Tyr by IODO-beads (Pierce) in the presence of Na^125I (2,000 Ci/mmol, Amersham Pharmacia Biotech) according to the manufacturer's protocol. Membrane fractions of muscles were incubated at 4° C. for 1 hr with binding buffer (ice-cold phosphate-buffered saline/0.1% bovine serum albumin) containing designated concentrations of [^125I]adiponectin (5,000 cpm/ng protein) plus unlabeled competitors. […] The cells were then washed three times with ice-cold phosphate-buffered saline, lysed in 0.1 N NaOH/0.1% SDS, and the cell-bound radioactivity was determined using a γ-counter (14). Nonspecific binding was determined using a 200-fold excess of unlabeled adiponectin. Specific binding was calculated by subtracting nonspecific binding from the total binding. The values presented in the “Results” represent an average of triplicate determinations of 3-10 experiments."}, "AMPK": {"system": "AMPK", "assay": "Adiponectin tolerance test: AMPK phosphorylation in skeletal muscle (Western blot)", "assay_type": "in vivo, mice", "conditions": "50 μg/10 g body weight, 5 min, FIGS. 5C, 5D", "protocol": "Generation of recombinant adiponectin, adiponectin tolerance test and Western blot analysis Bacterially expressed murine full-length adiponectin (Ad) was generated as previously described (10, 14). […] Skeletal muscles were isolated 5 min after adiponectin injection. Phosphorylation and amount of AMPK in keletal muscles were determined (10, 14)."}, "[3]": {"conditions": "skeletal muscle of STZ-treated mice"}, "[4]": {"conditions": "skeletal muscle, STZ-treated mice given insulin"}}, "data": [{"molecule": "CN(N=O)C(=O)N[C@H]1C(O)O[C@H](CO)[C@@H](O)[C@@H]1O", "note": "(mixture of isomers) [STZ, streptozotocin]", "values": [{"measurement": "plasma insulin", "setting": "[1]; STZ 200 mg/kg intraperitoneal, mice fasted 6 h, FIG. 2A", "value": "abolished"}, {"measurement": "plasma glucose", "setting": "[1]; STZ-treated vs control mice, fasted 6 h, FIG. 2B lanes 1, 2", "value": "significant marked increase"}, {"measurement": "increase in AdipoR1 mRNA", "setting": "AdipoR1 mRNA; [3]", "value": 103, "unit": "%"}, {"measurement": "increase in AdipoR2 mRNA", "setting": "AdipoR2 mRNA; [3]", "value": 38, "unit": "%"}]}, {"molecule": "insulin: human regular insulin (Eli Lilly) in vivo; insulin added to hepatocytes and C2C12 myocytes in vitro", "values": [{"measurement": "plasma glucose levels", "setting": "[1]; STZ plus insulin (1 units/kg) compared with STZ alone, FIG. 2B lanes 2, 3", "value": "reduced"}, {"measurement": "AdipoR1 mRNA after insulin treatment", "setting": "AdipoR1 mRNA; [4]", "value": "restored nearly completely"}, {"measurement": "AdipoR2 mRNA after insulin treatment", "setting": "AdipoR2 mRNA; [4]", "value": "restored nearly completely"}]}, {"molecule": "B1", "values": [{"measurement": "adiponectin binding to the membrane fractions of skeletal muscle", "setting": "[2]", "value": "higher binding to the membrane fractions of skeletal muscle of wild-type mice than ob/ob mice"}, {"measurement": "AMPK activation in skeletal muscle", "setting": "AMPK; ob/ob mice (implied)", "value": "unable to activate AMPK"}, {"measurement": "AMPK activation in skeletal muscle", "setting": "AMPK; wild-type mice", "value": "able to activate AMPK"}]}]}
